Counter-ions that a name gives are not always drawn. Like-named read-outs stand apart in the source and are kept apart here. Blank lines part the entries; values can stand above or below the molecule they belong to.
Columns and labels:
[1] = biological target: T1, unphosphorylated VEGF-R2Δ50 (FLVK) (Homo sapiens, UniProt P35968, DEL940-989/E990V); test: VEGF-R2 coupled spectrophotometric assay, unphosphorylated construct (FLVK); type: biochemical; details: for inhibition at 0.05 µM: @ 50 nM; for FLVK percent inhibition: 0.05 µM;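 as to all read-outs here: Baculovirus-expressed cytosolic kinase domain, ADP formation linked via pyruvate kinase and lactate dehydrogenase to NADH oxidation, read as falling absorbance at 340 nm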
T1 construct: VEGF-R2Δ50 contains residues 806-939 and 990-1171; made in house; host or cells: baculovirus/insect cells

[2] = system: human umbilical vein endothelial cells (HUVEC); test: HUVEC proliferation assay (VEGF-stimulated, MTT); type: cell-based; details: Homo sapiens
Experimental: This assay determines the ability of a test compound to inhibit the growth factor-stimulated proliferation of human umbilical vein endothelial cells (“HUVEC”). HUVEC cells (passage 3-4, Clonetics, Corp.) were thawed into EGM2 culture medium (Clonetics Corp) in T75 flasks. Fresh EGM2 medium was added to the flasks 24 hours later. Four or five days later, cells were exposed to another culture medium (F12K medium supplemented with 10% fetal bovine serum (FBS), 60 μg/ml endothelial cell growth supplement (ECGS), and 0.1 mg/ml heparin). Exponentially-growing HUVEC cells were used in experiments thereafter. Ten to twelve thousand HUVEC cells were plated in 96-well dishes in 100 μl of rich, culture medium (described above). The cells were allowed to attach for 24 hours in this medium. The medium was then removed by aspiration and 105 μl of starvation media (F12K+1% FBS) was added to each well. After 24 hours, 15 μl of test agent dissolved in 1% DMSO in starvation medium or this vehicle alone was added into each treatment well; the final DMSO concentration was 0.1%. One hour later, 30 μl of VEGF (30 ng/ml) in starvation media was added to all wells except those containing untreated controls; the final VEGF concentration was 6 ng/ml. Cellular proliferation was quantified 72 hours later by MTT dye reduction, at which time cells were exposed for 4 hours MTT (Promega Corp.). Dye reduction was stopped by addition of a stop solution (Promega Corp.) and absorbance at 595 λ was determined on a 96-well spectrophotometer plate reader.

[3] = biological target: T2, phosphorylated VEGF-R2Δ50 (FLVK-P) (Homo sapiens, UniProt P35968, DEL940-989/E990V); test: VEGF-R2 coupled spectrophotometric assay, phosphorylated construct (FLVK-P); type: biochemical
T2 construct: VEGF-R2Δ50 contains residues 806-939 and 990-1171; made in house; host or cells: baculovirus/insect cells
Excerpt: A construct (VEGF-R2Δ50) of the cytosolic domain of human vascular endothelial growth factor receptor 2 (VEGF-R2) lacking the 50 central residues of the 68 residues of the kinase insert domain was expressed in a baculovirus/insect cell system. Of the 1356 residues of full-length VEGF-R2, VEGF-R2Δ50 contains residues 806-939 and 990-1171, and also one point mutation (E990V) within the kinase insert domain relative to wild-type VEGF-R2. See commonly assigned, co-pending U.S. patent application Ser. No. 09/390,326, filed Sep. 7, 1999, incorporated by reference herein, for discussion of VEGF constructs and expression systems. Autophosphorylation of the purified construct was performed by incubation of the enzyme at a concentration of 4 μM in the presence of 3 mM ATP and 40 mM MgCl2 in 100 mM Hepes, pH 7.5, containing 5% glycerol and 5 mM DTT, at 4° C. for 2 h. […] See Parast et al., Biochemistry, 37, 16788-16801 (1998).
The production of ADP from ATP that accompanies phosphoryl transfer was coupled to oxidation of NADH using phosphoenolpyruvate (PEP) and a system having pyruvate kinase (PK) and lactic dehydrogenase (LDH). The oxidation of NADH was monitored by following the decrease of absorbance at 340 nm (e340=6.22 cm^−1 mM^−1) using a Beckman DU 650 spectrophotometer. Assay conditions for phosphorylated VEGF-R2Δ50 (indicated as FLVK-P in the tables below) were the following: 1 mM PEP; 250 μM NADH; 50 units of LDH/mL; 20 units of PK/mL; 5 mM DTT; 5.1 mM poly(E4Y1); 1 mM ATP; and 25 mM MgCl2 in 200 mM Hepes, pH 7.5. Assay conditions for unphosphorylated VEGF-R2Δ50 (indicated as FLVK in the tables) were the following: 1 mM PEP; 250 μM NADH; 50 units of LDH/mL; 20 units of PK/mL; 5 mM DTT; 20 mM poly(E4Y1); 3 mM ATP; and 60 mM MgCl2 and 2 mM MnCl2 in 200 mM Hepes, pH 7.5. Assays were initiated with 5 to 40 nM of enzyme. Ki values were determined by measuring enzyme activity in the presence of varying concentrations of test compounds. The data were analyzed using Enzyme Kinetic and Kaleidagraph software.

[4] = unphosphorylated VEGF-R2 construct
[5] = HUVEC proliferation with albumin, read-out: Huvec + Albumin IC50
[6] = read-out: FLVK percent inhibition

T1 sequence (P35968 with tags, fused parts or gaps DEL940-989/E990V limits assumed): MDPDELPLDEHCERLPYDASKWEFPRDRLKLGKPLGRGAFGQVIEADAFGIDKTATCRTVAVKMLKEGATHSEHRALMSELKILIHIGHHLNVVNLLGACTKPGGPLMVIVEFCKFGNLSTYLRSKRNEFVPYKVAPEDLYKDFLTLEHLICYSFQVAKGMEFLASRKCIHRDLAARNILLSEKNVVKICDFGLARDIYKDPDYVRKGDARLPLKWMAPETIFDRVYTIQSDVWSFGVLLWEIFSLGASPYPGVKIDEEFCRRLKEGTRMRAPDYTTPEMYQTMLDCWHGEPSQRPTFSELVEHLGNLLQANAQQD
T2 sequence (P35968 with tags, fused parts or gaps DEL940-989/E990V limits assumed): as above

inhibition at 0.05 µM ([3]; @ 50 nM, read-out: FLVK-P percent inhibition): 20%
Molecule: Cc1ccc2cc(NC(=O)c3cccc(CCc4cncc5ccccc45)c3)ccc2n1 [Example S-4, 3-(2-Isoquinolin-4-yl-ethyl)-N-(2-methyl-quinolin-6-yl)-benzamide]
IC50 ([2]; HUVEC, read-out: HUVEC IC50): > 300 nM

inhibition at 0.05 µM [1, 6]: 19%
Molecule: Cc1cc(NC(=O)c2cc(CCc3cncc4ccccc34)c(F)cc2Cl)ccc1C(C)C [Example S-7, 2-Chloro-4-fluoro-N-(4-isopropyl-3-methyl-phenyl)-5-(2-isoquinolin-4-yl-ethyl)-benzamide]
IC50 ([2]; HUVEC, read-out: HUVEC IC50): > 300 nM

inhibition at 50 µM ([1]; @ 50 μM, read-out: FLVK percent inhibition): 16%
Molecule: O=C(Nc1cccc(CSc2ncnc3[nH]ncc23)c1)c1ccc(O)c(Br)c1 [Example V-10, 3-Bromo-4-hydroxy-N-{3-[(1H-pyrazolo[3,4-d]-pyrimidin-4-yl)sulfanylmethyl]phenyl}-benzamide]

Ki [1, 4]: 2.6 nM
Molecule: O=C(Nc1cccc(CSc2ncnc3[nH]ncc23)c1)Nc1cc(C(F)(F)F)cc(C(F)(F)F)c1 [Example V-7, N-{3-[(1H-pyrazolo[3,4-d]pyrimidin-4-ylsulfanyl)methyl]phenyl}-N′-[3,5-bis-(trifluoromethyl)phenyl]urea]

inhibition at 0.05 µM [1, 6]: 18%
Molecule: O=C(Nc1cccc(CSc2ncnc3[nH]ncc23)c1)c1cc2cc(F)ccc2[nH]1 [Example V-12, 5-Fluoro-N-{3-[(1H-pyrazolo[3,4-d]-pyrimidin-4-yl)sulfanylmethyl]-phenyl}-indole-2-carboxamide]

Ki [3]: 4.2 nM
Molecule: Cc1c(Br)cc(NC(=O)c2cccc(CCc3cncc4ccccc34)c2)cc1Br [Example S-5, N-(3,5-Dibromo-4-methyl-phenyl)-3-(2-isoquinolin-4-yl-ethyl)-benzamide]
IC50 ([2]; HUVEC, read-out: HUVEC IC50): > 300 nM

inhibition at 0.05 µM [1, 6]: 30%
Molecule: CCC(C(=O)Nc1cccc(CSc2ncnc3[nH]ncc23)c1)c1ccccc1C (racemic) [Example V-15]

inhibition at 0.05 µM [1, 6]: 0%
Molecule: O=C(Nc1cccnc1)Nc1cccc(CSc2ncnc3[nH]ncc23)c1 [Example V-8, N-{3-[(1H-pyrazolo[3,4-d]pyrimidin-4-ylsulfanyl)methyl]phenyl}-N′-(pyridin-3-yl)urea]

inhibition at 0.05 µM [1, 6]: 62%
Molecule: O=C(Nc1cc(Cl)c(-n2ccnc2)c(Cl)c1)c1ccc(F)c(OCc2cccnc2)c1 [Example R-24, N-(3,5-Dichloro-4-imidazol-1-yl-phenyl)-4-fluoro-3-(pyridin-3-ylmethoxy)-benzamide]

Ki [1, 4]: 1.4 nM
Molecule: CC(C)(C)c1ccc(C(=O)Nc2cccc(CSc3ncnc4[nH]ncc34)c2)cc1 [Example V-5, N-{3-[(1H-pyrazolo[3,4-d]-pyrimidin-4-yl)sulfanylmethyl]phenyl}-4-t-butylbenzamide]

Ki [1]: 2 nM
Molecule: Cc1ccc(C(=O)Nc2cccc(CSc3ncnc4[nH]ncc34)c2)cc1Br [Example V-1]

Ki [1, 4]: 22 nM
Molecule: CC(C)(C)c1cc(C(=O)Nc2cccc(CSc3ncnc4[nH]ncc34)c2)cc(C(C)(C)C)c1 [Example V-9, N-{3-[(1H-pyrazolo[3,4-d]-pyrimidin-4-yl)sulfanylmethyl]phenyl}-(3,5-di-t-butyl)benzamide]

Ki [1]: 1.4 nM
Molecule: Cc1cc(NC(=O)c2cc(CCc3cncc4ccccc34)c(F)cc2F)ccc1C(C)C [Example S-8, 2,4-Difluoro-N-(4-isopropyl-3-methyl-phenyl)-5-(2-isoquinolin-4-yl-ethyl)-benzamide]

inhibition at 0.05 µM [1, 6]: 17%
Molecule: O=C(Nc1cccc(CSc2ncnc3[nH]ncc23)c1)c1ccc2cc[nH]c2c1 [Example V-13, N-{3-[(1H-pyrazolo[3,4-d]-pyrimidin-4-yl)sulfanylmethyl]phenyl}-indole-6-carboxamide]

inhibition at 0.05 µM [1, 6]: 18%
Molecule: O=C(Nc1cccc(CSc2ncnc3[nH]ncc23)c1)c1ccc2ncccc2c1 [Example V-11, N-{3-[(1H-pyrazolo[3,4-d]-pyrimidin-4-yl)sulfanylmethyl]phenyl}-quinoline-6-carboxamide]

The remaining lines, values behind:

Molecule: O=C(Nc1ccc(N2CCNCC2)c(C(F)(F)F)c1)c1cccc(CCc2cnc3[nH]cnc3c2)c1 [BB-1, 3-[2-(3H-Imidazo[4,5-b]pyridin-6-yl)-ethyl]-N-(4-piperazin-1-yl-3-trifluoromethyl-phenyl)-benzamide dihydrochloride]
Ki [1, 4]: 10.8 nM
IC50 [2, 5]: 940 nM

Molecule: O=C(Nc1ccc(-n2ccnc2)c(C(F)(F)F)c1)c1ccc(F)c(OCc2cccnc2)c1 [Example R-21, 4-Fluoro-N-(4-imidazol-1-yl-3-trifluoromethyl-phenyl)-3-(pyridin-3-ylmethoxy)-benzamide]
inhibition at 0.05 µM [1, 6]: 42%

Molecule: Nc1ccc(CCc2cccc(C(=O)Nc3ccc(N4CCNCC4)c(C(F)(F)F)c3)c2)cn1 [AA-2, 3-[2-(6-Amino-pyridin-3-yl)-ethyl]-N-(4-piperazin-1-yl-3-trifluoromethyl-phenyl)-benzamide dihydrochloride]
Ki [1, 4]: 25 nM
IC50 [2, 5]: 80 nM

Molecule: Cl.Cl.NC(=O)c1cncc(CCc2cccc(C(=O)Nc3ccc(N4CCNCC4)c(C(F)(F)F)c3)c2)c1 [CC-1, 5-{2-[3-(Piperazin-1-yl-trifluoromethyl-phenylcarbamoyl)-phenyl]-ethyl}-nicotinamide dihydrochloride]
FLVK percent inhibition [1]: 20% @

Molecule: CC1CCc2cc(NC(=O)c3ccc(F)c(OCc4cncc5ccccc45)c3)ccc2N1 (centres unmarked) [Example O-3, 4-Fluoro-N-(2-methyl-1,2,3,4-tetrahydroquinolin-6-yl)-3-(isoquinolin-4-yl-methoxy)-benzamide bistrifluoroacetic acid salt]
Ki [1]: 5.8 nM

Molecule: 5-{2-[3-(Piperazin-1-yl-trifluoromethyl-phenylcarbamoyl)-phenyl]-ethyl}nicotinic acid methyl ester dihydrochloride [CC-2]
FLVK percent inhibition [1]: 30% @

Molecule: O=C(Nc1cccc(CSc2ncnc3[nH]ncc23)c1)c1ccc(Oc2ccccc2)cc1 [Example V-6, N-{3-[(1H-pyrazolo[3,4-d]-pyrimidin-4-yl)sulfanylmethyl]phenyl}-(4-phenoxy)benzamide]
inhibition at 0.05 µM [1, 6]: 12%

Molecule: CC(C)c1cccc(NC(=O)c2cccc(CSc3cnccn3)c2)c1 [Example A-7, N-(3-Isopropylphenyl)-3-[(pyrazin-2-yl)sulfanylmethyl]benzamide]
Ki [3]: 26 nM
IC50 ([2]; HUVEC, read-out: HUVEC IC50): > 700 nM

Molecule: O=C(Nc1cccc2c1OC(F)(F)O2)c1cccc(CCc2cncc3ccccc23)c1 [Example O-2, N-(2,2-Difluoro-benzo[1,3]dioxol-4-yl)-3-(2-isoquinolin-4-yl-ethyl)-benzamide trifluoro-acetic acid salt]
inhibition at 0.05 µM [1, 6]: 13%

Molecule: COc1ccc(Nc2cc(CCc3cccc(C(=O)Nc4ccc(N5CCN(C(=O)OC(C)(C)C)CC5)c(C(F)(F)F)c4)c3)[nH]n2)cn1 [Example G-9, 3-{2-[5-(6-Methoxypyridin-3-yl)amino-2H-pyrazol-3-yl]-ethyl}-N-[4-(4-t-butoxycarbonylpiperazin-1-yl)-3-trifluoromethylphenyl]benzamide]
Ki [1]: 2.5 nM

Molecule: O=C(Nc1ccc(-n2cncn2)c(C(F)(F)F)c1)c1ccc(F)c(OCc2cccnc2)c1 [Example R-23, 4-Fluoro-3-(pyridin-3-ylmethoxy)-N-(4-[1,2,4]triazol-1-yl-3-trifluoromethyl-phenyl)-benzamide]
inhibition at 0.05 µM [1, 6]: 50%

Reference: patent US6635641B2 (Agouron Pharmaceuticals, Inc., priority 2000, dated 2003)
